Test results: patent publication US8586533B2, “Treatment of early-stage osteoarthritis” (Kaohsiung Medical University, priority 2008, dated 2013)

Experiments:
[1] = test system: human articular chondrocytes; assay: Dimethylmethylene blue (DMMB) assay of GAG levels in chondrocyte cultures; format: cell-based; conditions: for GAG levels versus control group: 10 nM
Protocol: Chondrocyte cultures were divided into 4 groups.
Alginate beads were dissolved as described above and further digested by papain (300 μg/ml) at 60° C. for 18 hours. The levels of DNA and sulfated glycosaminoglycan (GAG) in the samples were quantified using Hoechst 33258 dye and 1,9-dimethylmethylene blue dye, respectively. A standard curve for the DMMB assay was generated using aqueous chondroitin sulfate C solution (Sigma-Aldrich, St. Louis, Mo.) at concentrations ranging from […].

[2] = test system: rat articular cartilage; assay: Papain-induced OA rat model, Safranin O-stained GAG histomorphometry; format: in vivo, Sprague-Dawley rats; conditions: for GAG level (red:total ratio) versus OA group: p<0.01
Protocol: (§1) Fifty-four 12-week-old male Sprague-Dawley rats (250-300 gm) were purchased from BioLASCO Taiwan and housed under standard laboratory conditions (temperature 24° C., 12-hour light-dark cycle) with food and water ad libitum. The animals were acclimatized to the laboratory environment for 1 week before the experiments.
Rats were divided into the following 3 groups: OA (OA induction without PTH [1-34] treatment) (n=18), OA plus PTH (PTH [1-34] treatment followed by OA induction) (n=18), and PTH (PTH [1-34] treatment without OA induction) (n=18). Each left knee, which served as the contralateral control joint, was injected with vehicle without PTH treatment or OA induction. The right knees were the study joints. OA was induced in the right knees of rats in the OA and OA plus PTH groups with intraarticular injections of 20 μl of 4% papain solution and 20 μl of 0.03M cysteine. The injections were given with a 26-gauge needle via the patellar tendon on days 1, 4, and 7 of the experiment (see e.g., Nucl Med Commun (1996) 17(6): 529-35). In the OA plus PTH group, after OA induction, the right knees were injected intraarticularly with 40 μl of 10 nM PTH (1-34) every 3 days until rats were killed. In the PTH group, the same PTH (1-34) treatment was performed but without OA induction. Six rats from each group were killed by CO2 inhalation at the same time points as rats in the OA plus PTH group, in which PTH (1-34) treatment was given for 1, 3, and 5 weeks.
After rats were killed, the knees were harvested, and the tibia plateaus with articular cartilage were collected and fixed with 10% neutral buffered formalin prior to histologic preparation. The samples were then decalcified in 10% formic acid/PBS. The decalcified tibia articular samples were paraffin embedded, and 5-μm microsections in the coronary plane were prepared. GAG was stained with Safranin O-fast green (1% Safranin O counterstained with 0.75% hematoxylin and then 1% fast green) (Sigma, St. Louis Mo.). Localized type II collagen and type X collagen were immunostained. Apoptotic cells in cartilage were TUNEL stained.
GAG was stained red by Safranin O, and the total and red-stained areas in the articular cartilage of each proximal tibia were measured using Image-Pro Plus software, version 5.0. The ratio of red stained area to total area (red:total) in each group was calculated.
Methods are as described above in the Sections entitled “Animal Experiments” and “Osteoarthritis Induction and PTH Treatment” except that the concentration of the administered dose of PTH (1-34) was 5 nM, 10 nM, or 100 nM. Safranin O-stained articular cartilage in the proximal tibia from the contralateral control joints of rats in the OA group and the study joints of rats in the OA and OA plus PTH groups are measured for the ratio of Safranin O-stained area to total area. The ratios of Safranin O-stained area to total area (red/total) among all groups after 5 weeks of PTH treatment are compared. Bars show the mean and SEM of 6 samples. Data are evaluated by one-way analysis of variance, and multiple comparisons are performed using Scheffe's method. **=P<0.01: the control joints versus study joints in the OA group at the indicated time point; ##=P<0.01: the OA joints versus study joints in groups of OA plus PTH 5 nM, OA plus PTH 10 nM, and OA plus PTH 100 nM.

[3] = test system: rat articular cartilage; assay: Papain-induced OA rat model, TUNEL staining of tibia articular sections; format: in vivo, Sprague-Dawley rats; conditions: OA plus PTH group, 10 nM intraarticular
Protocol: as §1
Rats were divided into the following 3 groups: OA (OA induction without PTH [1-34] treatment) (n=18), OA plus PTH (PTH [1-34] treatment followed by OA induction) (n=18), and PTH (PTH [1-34] treatment without OA induction) (n=18). Each left knee, which served as the contralateral control joint, was injected with vehicle without PTH treatment or OA induction. The right knees were the study joints. OA was induced in the right knees of rats in the OA and OA plus PTH groups with intraarticular injections of 20 μl of 4% papain solution and 20 μl of 0.03M cysteine. The injections were given with a 26-gauge needle via the patellar tendon on days 1, 4, and 7 of the experiment (see e.g., Nucl Med Commun (1996) 17(6): 529-35). […]
Apoptotic cells in each section were measured by TUNEL staining using the In Situ Cell Death Detection Kit, TMR red. […] DAPI-stained cells (mean±SEM 150±40) were counted in the center area of the cartilage in tibia plateaus. […]

PTH (1-34): 34-amino acid long peptide made up of amino-terminal amino acids 1 through 34 of human parathyroid hormone
GAG levels versus control group ([1]; PTH group (no azaC)): not significantly different
GAG levels versus azaC group ([1]; azaC plus PTH group, 10 nM, 3, 7, and 10 days, P<0.01): significantly higher
GAG levels versus control group ([1]; azaC plus PTH group, after 7 and 10 days, P<0.01): higher
GAG level (red:total ratio) versus OA group ([2]; 5 nM, intraarticular every three days, 5 weeks): significantly higher
GAG level (red:total ratio) versus OA group ([2]; 10 nM, intraarticular every three days, 5 weeks): significantly higher
GAG level (red:total ratio) versus OA group ([2]; 100 nM, intraarticular every three days, 5 weeks): significantly higher
GAG level, control group versus PTH-treated groups ([2]; 5, 10, or 100 nM, intraarticular every three days, 5 weeks): no significant difference
red:total ratio versus contralateral control ([2]; OA plus PTH group, 10 nM intraarticular, 1 and 3 weeks, P<0.01): significantly lower
red:total ratio versus contralateral control cartilage ([2]; OA plus PTH group, 10 nM intraarticular, 5 weeks): not significantly different
red:total ratio (Safranin O-stained area to total area, GAG) versus OA group ([2]; OA plus PTH group, intraarticular 40 μl of 10 nM every 3 days, 1, 3, and 5 weeks, P<0.01): significantly higher
red:total ratio, study cartilage versus contralateral control cartilage ([2]; PTH group (no OA induction), 10 nM intraarticular, any time point): no significant differences
rate of apoptosis of chondrocytes in study cartilage versus contralateral control cartilage [3]: no significant difference
rate of apoptosis of chondrocytes in study cartilage versus OA group ([3]; P<0.01): significantly lower
